This is an account of results in patent US7122294B2, “Photoacid generators with perfluorinated multifunctional anions” (3M Innovative Properties Company, priority 2003, dated 2006).

“And” between values parts separate entries of the source, which are not always exact repeats. Identical values can stand only once.

A short description of series [1]: Volatility by vacuum distillation from 100% H2SO4. It is filed as physicochemical. On the procedure: This example describes an unsuccessful attempt to vacuum distill the difunctional perfluoroorganic disulfonic acid, HO3S(CF2)4SO3H, illustrating the very low volatility of this diacid compared to monofunctional perfluoroalkanesulfonic acids of even higher molecular weight, like C8F17SO3H. The dipotassium salt, KO3S(CF2)4SO3K (40.0 g) and 100% H2SO4 (241 g) were charged to a vacuum distillation apparatus comprising a 250 mL, three-necked flask equipped with a heating mantle, magnetic stirring bar, an insulated short path distillation head and a 100 mL receiver flask. The pot temperature and head temperature were continuously monitored with J-type thermocouple probes. […] The pressure was reduced to 3.6 Torr and the pot temperature raised to 178° C., but still there was no boiling or distillation. The pressure was reduced further and additional heat was applied to the pot to force distillation. Distillate eventually started to collect at a pot temperature of 196° C. and a pressure of 1.75 Torr. A total of 73.3 g of distillate was collected between 184–186° C. (head temperature) before the distillation was terminated. Since this represents 222% of the theoretical HO3S(CF2)4SO3H yield, it was surmised that the distillate was probably mostly sulfuric acid. The presence of significant H2SO4 in the distillate was confirmed by precipitation of BaSO4 upon treatment of an aqueous solution of the distillate with BaCl2.
The remaining pot retains were diluted in about 700 mL of water and treated with 350 mL of tributylamine with stirring. A white solid precipitate presumed to be Bu3NH+−O3S(CF2)4SO3^−Bu3NH^+ formed which was isolated by suction filtration washed with three portions of water and air-dried by suction to yield 44.07 g (66% of theory). […] Thus, even though the molecular weight of this monofunctional acid is 38% greater than that of HO3S(CF2)4SO3H, it is much more volatile and distills at much lower temperature than the difunctional acid. […]

The nature of series [2]: Photo-DSC/DSC cationic curing activity of PAGs in ERL-4221. Also noted: PDSC Peak Max / PDSC Induction Time: unit not given here. The conditions noted are these: for PDSC Energy: ERL-4221, 1.0% PAG, 0.1% ITX, light exposure 5 min at 30° C.; for DSC after PDSC Onset Temp / DSC after PDSC Energy / DSC after PDSC Peak Max / PDSC Induction Time / DSC Only (dark) Energy / DSC Only (dark) Onset Temp / DSC Only (dark) Peak Max / PDSC Peak Max: ERL-4221; for DSC after PDSC Onset Temp: DSC scan 10° C./minute after light exposure; for DSC after PDSC Energy / DSC after PDSC Peak Max: DSC scan after light exposure; for PDSC Induction Time: light exposure at 30° C.; for DSC Only (dark) Energy / DSC Only (dark) Onset Temp / DSC Only (dark) Peak Max: no prior light exposure; for PDSC Peak Max: time to peak maximum of curing exotherm at 30° C. On the procedure: (§1) Photo-DSC/DSC: Standard (hermetic) liquid sample pans were used. Sample size was kept in the 6 to 8 mg range. Samples were tested using a Dupont Photo-DSC/DSC instrument (available from DuPont, Wilmington, Del.). The light source was a 200 W Hg lamp that delivered about 60 mw/cm at the sample. Samples were exposed in open pans for 5 minutes to the light source at 30° C. then removed from the instrument, sealed and a standard DSC scan run at 10° C./minute to 300° C. A separate DSC experiment was carried out using a sealed sample pan and no prior light exposure to determine the dark reactivity of these PAGs. Comparison of the DSC traces before and after light exposure enables differentiation between the thermal reactivity of the PAGs (in the dark) and their photochemical activity.
(§2) This example describes photo-DSC/DSC experiments designed to quantitatively compare the relative cationic curing reactivities of PAGs of the present invention containing difunctional fluoroorganic sulfonate anions with related PAGs having identical cations and monofunctional perfluoroalkanesulfonate anions. Relative reactivities were measured in three different cationically polymerizable monomer systems, including two different types of epoxies and one vinyl ether.
(§3) The photo-DSC experiment provides information on the photo-cure speed at 30° C. as measured by the induction time (onset) and time to reach the peak maximum in the curing exotherm. […] The energy released under the curing exotherm is a measure of the extent of cure; larger values mean more cure has taken place during the light exposure. […] Comparison with the DSC traces recorded with no prior light exposure provides a measure of the increase in activity after photoactivation of the PAG.
(§4) General: Stock solutions of three cationically curable monomers were prepared as shown in Table 3 with 0.1% (w/w) isopropylthioxanthone (ITX). Epon 828 is a difunctional glycidyl ether epoxy from Shell, ERL-4221 is a difunctional cycloaliphatic epoxy from Union Carbide and VEX 5015 is a trifunctional vinyl ether from Allied Signal. Because of the low sensitivity of these compositions to room lights, all sample preparation was done with the lab lights on but the hood lights off. All PAGs were formulated at 1.0% by weight in the stock monomer/sensitizer solutions. Into a small aluminum pan was weighed 0.02 g of PAG and 0.04 g of propylene carbonate used to promote dissolution of the PAG in the monomer. The pan was heated briefly on a hot plate set at 100° C. to dissolve the PAG, then 2.0 g the stock monomer/sensitizer solution was added. The solution was briefly heated again on a hot plate set at 100° C. to allow complete mixing of the components, then the solution was allowed to cool to room temperature before using.

Series [3] is described as follows: Thermal gravimetric analysis (TGA), onset of thermal decomposition. The settings on record: under nitrogen, ramp 10° C. per minute. It is filed as physicochemical. On the procedure: TGA was performed on a Perkin-Elmer Instruments TGA Model 7 in an open platinum pan. The onset of thermal decomposition, Td, was taken as the thermal decomposition temperature of the photoacid generators and was determined under nitrogen atmosphere using a temperature ramp of 10° C. per minute. The onset temperature was determined by the intersection of tangents to the low temperature portion of the baseline and the first inflection point in the wt % vs. temperature curve.

Series [4] can be described thus: Photo-DSC/DSC cationic curing activity of PAGs in VEX 5015. Details: PDSC Peak Max / PDSC Induction Time: unit not given here. The settings on record: for PDSC Energy: VEX 5015, 1.0% PAG, 0.1% ITX, light exposure 5 min at 30° C.; for PDSC Induction Time: light exposure at 30° C.; for DSC Only (dark) Onset Temp: no prior light exposure; for PDSC Peak Max: time to peak maximum of curing exotherm at 30° C. The procedure:
as §1, §2, §3, §4

Series [5] is described as follows: Photo-DSC/DSC cationic curing activity of PAGs in Epon 828. Also noted: PDSC Peak Max / PDSC Induction Time: unit not given here. The conditions noted are these: for PDSC Energy: Epon 828, 1.0% PAG, 0.1% ITX, light exposure 5 min at 30° C.; for DSC after PDSC Onset Temp / DSC after PDSC Energy / DSC after PDSC Peak Max / PDSC Induction Time / DSC Only (dark) Energy / DSC Only (dark) Onset Temp / DSC Only (dark) Peak Max / PDSC Peak Max: Epon 828; for DSC after PDSC Onset Temp: DSC scan 10° C./minute after light exposure; for DSC after PDSC Energy / DSC after PDSC Peak Max: DSC scan after light exposure; for PDSC Induction Time: light exposure at 30° C.; for DSC Only (dark) Energy / DSC Only (dark) Onset Temp / DSC Only (dark) Peak Max: no prior light exposure; for PDSC Peak Max: time to peak maximum of curing exotherm at 30° C. On the procedure:
as §1, §2, §3, §4

Series [6] in a line: Elimination of perfluoroalkylsulfonates from the body. The class given is in vivo. The conditions noted are these: tested in the form of its potassium salt.
The mark [7] stands for this setting: VEX 5015, DSC scan after light exposure.
The mark [8] stands for this setting: VEX 5015, two values = two exotherms.
The mark [9] stands for this setting: VEX 5015, DSC scan after light exposure, two values = two exotherms.

For the compound `O=S(=O)(O)C(F)(F)C(F)(F)C(F)(F)C(F)(F)C(F)(F)C(F)(F)C(F)(F)C(F)(F)F` [C8F17SO3H], in series [1] (8.00 Torr, from 100% H2SO4), the “head temperature of distillation” value is 135–142 °C and the “pot temperature of distillation” value is 148–157 °C.

As for `O=S(=O)(O)C(F)(F)C(F)(F)C(F)(F)C(F)(F)S(=O)(=O)O` [HO3S(CF2)4SO3H], the “volatility: outcome of vacuum distillation” value in series [1] (from 100% H2SO4, down to 1.75 Torr, pot temperature up to 196° C.) is reported as “did not distill”.

Consider `CC(C)(C)c1ccc([I+]c2ccc(C(C)(C)C)cc2)cc1.CC(C)(C)c1ccc([I+]c2ccc(C(C)(C)C)cc2)cc1.O=S(=O)([O-])C(F)(F)C(F)(F)C(F)(F)S(=O)(=O)[O-]` [PAG1, [(p-(CH3)3C—C6H4)2I^+]2-O3S(CF2)3SO3—], for which, in series [2], the “PDSC Energy” value worked out at 7 J/g, the “DSC after PDSC Onset Temp” value turned out to be 60 C.°, the “DSC after PDSC Energy” value came to 582 J/g and the DSC after PDSC Peak Max amounted to 148 °C. In series [2], the “PDSC Induction Time” value came to 15.1, the “DSC Only (dark) Energy” value is reported as 565 J/g, the “DSC Only (dark) Onset Temp” value turned out to be 150 C.° and the “DSC Only (dark) Peak Max” value is on record as 203. Moreover, the “PDSC Peak Max” value in series [2] came to 24. The “onset of thermal decomposition (TGA)” value in series [3] was 224 °C. Moreover, the “PDSC Energy” value in series [4] was determined as 209 J/g. Besides, the “DSC after PDSC Energy” value in series [4] (setting [7]) stood at 54 J/g. Besides, in series [4] (VEX 5015), the “PDSC Induction Time” value was determined as 1.6 and the “PDSC Peak Max” value is reported as 4.2. In series [4] (setting [8]), the “DSC Only (dark) Onset Temp” value is 100, C.° and 160 C.°. Moreover, in series [5], the “PDSC Energy” value was 8 J/g, the “DSC after PDSC Onset Temp” value is 100 C.°, the “DSC after PDSC Energy” value is on record as 553 J/g and the DSC after PDSC Peak Max is 192 °C. For the same compound, in series [5], the “PDSC Induction Time” value was found to be 16.2, the “DSC Only (dark) Energy” value was found to be 576 J/g, the “DSC Only (dark) Onset Temp” value is 180 C.° and the DSC Only (dark) Peak Max worked out at 230 °C. Further, the “PDSC Peak Max” value in series [5] is recorded as 27.

`CC(C)(C)c1ccc([I+]c2ccc(C(C)(C)C)cc2)cc1.CC(C)(C)c1ccc([I+]c2ccc(C(C)(C)C)cc2)cc1.O=S(=O)([O-])C(F)(F)C(F)(F)C(F)(F)C(F)(F)S(=O)(=O)[O-]` [PAG2, [(p-(CH3)3C—C6H4)2I^+]2-O3S(CF2)4SO3—]: the “solubility in PGMEA” value is “greater than 4 wt %”. In addition, in series [2], the “PDSC Energy” value amounted to 10 J/g, the “DSC after PDSC Onset Temp” value is 60 C.°, the “DSC after PDSC Energy” value worked out at 538 J/g and the DSC after PDSC Peak Max stood at 142 °C. Further, in series [2], the “PDSC Induction Time” value is given as 14.8, the “DSC Only (dark) Energy” value was 574 J/g, the “DSC Only (dark) Onset Temp” value was 150 C.° and the “DSC Only (dark) Peak Max” value stood at 196. For the same compound, the “PDSC Peak Max” value in series [2] is given as 25. The “onset of thermal decomposition (TGA)” value in series [3] worked out at 237 °C. Besides, in series [4], the “PDSC Energy” value was found to be 220 J/g. Moreover, the “DSC after PDSC Energy” value in series [4] (setting [7]) was found to be 31 J/g. In series [4] (setting [9]), the “DSC after PDSC Onset Temp” value was 135 C.° and the DSC after PDSC Peak Max is 158 °C. Moreover, in series [4] (VEX 5015), the “PDSC Induction Time” value amounted to 1.3 and the “PDSC Peak Max” value turned out to be 3.4. In addition, in series [4] (setting [8]), the “DSC Only (dark) Onset Temp” value was 100, C.° and 160 C.°. In series [5], the “PDSC Energy” value was 7 J/g, the “DSC after PDSC Onset Temp” value is listed as 110 C.°, the “DSC after PDSC Energy” value is 541 J/g and the DSC after PDSC Peak Max was found to be 194 °C. Besides, in series [5], the “PDSC Induction Time” value was determined as 17.1, the “DSC Only (dark) Energy” value was found to be 574 J/g, the “DSC Only (dark) Onset Temp” value is recorded as 175 C.° and the DSC Only (dark) Peak Max was 232 °C. Moreover, the “PDSC Peak Max” value in series [5] is reported as 27.

Consider `O=S(=O)(O)C(F)(F)C(F)(F)C(F)(F)C(F)(F)F` [perfluorobutylsulfonate], for which, in series [6], the “elimination from the body” value is “eliminates from the body more effectively than perfluorohexylsulfonate and much more effectively than perfluorooctylsulfonate”.
